Assay [1] has as its target G-quadruplexes. Particulars: literature statement; cited from earlier work.
Assay [2] deals with Htelo4 non-parallel G-quadruplex. The assay can be described thus: Gel electrophoresis binding, Htelo4. Further details: species or system human. The settings on record: Hetol4 non-parallel forming sequence; read-out: estimated Kd. The protocol: (§1) DNA concentrations were fixed at 100 nM and Rhau55 was 1 μM, in 70 mM KCL and 20 mM phosphate buffer (pH=6.8).
(§2) To confirm that the observed selective effect was based on the structure rather than sequence, the binding of Rhau55 was tested using the human telomeric sequences in K^+-containing solution, with and without crowded condition (40% v/v PEG200). In diluted solutions the human telomeric sequences Htelo1, Htelo2, Htelo3 and Helo4 form a distinct and non-parallel G-quadruplex (Luu K N et al. (2006) J Am ChemSoc, 128(30), 9963-9970; Phan A T et al. (2006) Nucleic Acids Res, 34(19), 5715-5719; Lim K W et al. (2009) J Am ChemSoc, 131(12), 4301-430; Lim K W et al. (2009) Nucleic Acids Res, 37(18), 6239-6248), however in crowded conditions those sequences form a propeller-type parallel stranded G-quadruplex.
(§3) Subsequently, a quantitative analysis of the interaction between Rhau55 and three G-quadruplexes was performed using gel electrophoresis (FIG. 4). The analysis indicated a dissociation constant of 1029 nM and 989 nM for the parallel-type form of Htelo1 (under crowded condition) and the single, loop propeller-type T95_2 T, respectively, consistent with previous published data for the full-length protein (Tran H et al. (2004) Mol Cell, 13, 101). […]

The target in assay [3] is Htelo2 non-parallel G-quadruplex. Put plainly: Gel electrophoresis binding, Htelo2. Particulars: Htelo2 non-parallel forming sequence; read-out: estimated Kd. The arrangement: species or system human. The protocol: as §1, §2, §3
Assay [4] relates to human telomeric sequences Htelo1-Htelo4 G-quadruplexes. Put plainly: Gel shift assay of human telomeric sequences with and without crowded condition (40% v/v PEG200). The settings on record: human telomeric sequences in K+ solution, dilute (non-parallel) vs crowded 40% v/v PEG200 (parallel). The assay is classed as binding. How it is done:
as §1, §2
A general note: In EMSA bound probe runs differently from free probe, usually more slowly.

Assay [5] deals with mixture of T95_2T (propeller parallel form) and HT1 (non-parallel). The assay can be described thus: NMR imino proton spectra of a mixture of HT1 and T95_2T with Rhau55. The class given is binding. Particulars: Rhau55 added to mixture of T95_2T (parallel) and HT1 (non-parallel). An excerpt: (§4) Rhau55 binds to various parallel G-quadruplexes DNA and RNA (FIGS. 1 and 3-5) but not to various forms of non-parallel G-quadruplexes (FIGS. 1 and 6).

In assay [6] the target is Htelo1 hybrid "3+1" form 1 G-quadruplex. The assay can be described thus: Quantitative gel mobility shift assay, Htelo1 in dilute condition. Particulars: Htelo1 hybrid "3+1" form 1, dilute condition; read-out: apparent binding. The arrangement: species or system human. The protocol:
(§5) (A) T95_2 T and Htelo1 at a concentration of 100 nM were incubated for 15 minutes at room temperature with an increasing concentration of Rhau55. (B) Quantification of gel electrophoresis assays bands of T95_2 T (black dot) and Htelo1 in dilute (open square) and crowding condition (black cross).
(§6) Subsequently, a quantitative analysis of the interaction between Rhau55 and three G-quadruplexes was performed using gel electrophoresis (FIG. 4). The analysis indicated a dissociation constant of 1029 nM and 989 nM for the parallel-type form of Htelo1 (under crowded condition) and the single, loop propeller-type T95_2 T, respectively, consistent with previous published data for the full-length protein (Tran H et al. (2004) Mol Cell, 13, 101). In contrast an apparent binding of >10 μM was found with the hybrid “3+1” form 1, and an estimated Kd over 10 μM was found for Htelo2, Htelo3 and Hetol4 non-parallel forming sequences, highlighting a net preference for the human telomeric sequences forming a parallel-type G-quadruplex. From the data little effect on three (Htelo1, parallel form) and single (T95_2T) loop size was observed on Rhau55 binding affinity.

Assay [7] addresses Htelo3 non-parallel G-quadruplex. The assay can be described thus: Gel electrophoresis binding, Htelo3. The arrangement: species or system human. The settings on record: Htelo3 non-parallel forming sequence; read-out: estimated Kd. How it is done:
as §1, §2, §3

Assay [8] concerns the target T95_2T (single loop propeller-type parallel G-quadruplex). Put plainly: Quantitative gel mobility shift assay of Rhau55 binding to T95_2T. Particulars: gel electrophoresis, DNA 100 nM, read-out: dissociation constant. How it is done: as §5, §6
The target in assay [9] is parallel-type form of Htelo1 (under crowded condition). The assay can be described thus: Quantitative gel mobility shift assay, Htelo1 in crowding condition (40% PEG). Particulars: parallel-type form of Htelo1 under crowded condition (40% PEG); gel electrophoresis; read-out: dissociation constant. The class given is binding, human. The protocol:
as §5, §2
Subsequently, a quantitative analysis of the interaction between Rhau55 and three G-quadruplexes was performed using gel electrophoresis (FIG. 4). […]

Assay [10] relates to parallel G-quadruplexes DNA and RNA (93del, CEB25, Pu24T, CEB1, TERC18, 12 nt TER, 10 nt TER). The assay can be described thus: Native gel electrophoresis of Rhau55 with parallel G-quadruplexes. The class given is binding. The settings on record: various parallel G-quadruplexes DNA and RNA; DNA 100 μM, 70 mM KCl, 20 mM phosphate pH 6.8. How it is done: The ratio between Rhau55 and Nucleic acids is indicated on top of each lane. DNA concentrations were fixed at 100 μM, in 70 mM KCL and 20 mM phosphate buffer (pH=6.8).
Rhau55 was expressed in Escherichia coli. The binding of Rhau55 to different G-quadruplexes nucleic acids topology was first tested using gel electrophoresis.
as §4

As to `C[n+]1cc(NC(=O)c2ccc3ccc4ccc(C(=O)Nc5cc6ccccc6[n+](C)c5)nc4c3n2)cc2ccccc21` [Phen-DC3], the “dissociation constant Kd” value in [1] is “nanomolar range”.
For the compound “Rhau55: G-quadruplex binding domain of human helicase Rhau (DHX36), N-terminal residues 53 to 105, expressed in Escherichia coli (HPGHLKGREIGMWYAKKQGQKNKEAERQERAVVHMDERREEQIVQLLNSVQAK; UniProt Q9H2U1 53-105, looked up, fragment)”, the Kd was > 10 µM in assay [2]; > 10 µM in assay [3]; > 10 µM in assay [6]; > 10 µM in assay [7]; 0.989 µM in assay [8]; 1.03 µM in assay [9]. For the same compound, in assay [4], the “binding in gel shift assay” value is listed as “binds significantly only to a parallel-type G-quadruplex”. Moreover, in assay [5], the “effect on NMR imino proton peaks” value is reported as “only affect the peaks of the former form”. Moreover, the “binding in gel electrophoresis” value in assay [10] is listed as “binds”.

The values above are taken from US9815868B2, “Peptides binding to parallel-stranded G-quadruplexes” (NANYANG TECHNOLOGICAL UNIVERSITY, priority 2013, dated 2017).
